Source: patent US20220273659A1, “HETEROCYCLIC COMPOUNDS AS KINASE INHIBITORS” (NUVATION BIO INC., priority 2019, published 2022)

How the values were obtained:
CDK4 = target: T1, CDK4 (Homo sapiens, UniProt P11802); assay: In vitro kinase inhibition IC50, luminescence (ADP Glo), retinoblastoma substrate; assay type: biochemical; conditions: read-out: CDK4/D1 IC50
T1 construct: purchased Invitrogen PR8064A
Method in brief: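 CDK4 enzyme (5 nM, Invitrogen) was combined with test compound and a mix of retinoblastoma substrate (1 μM) plus ATP (25 μM) in kinase buffer, 30 μL/well in 96-well half area white plates. After 2H at room temperature, ADP Glo reagent stopped the reaction for 45 min, then detection reagent was added and luminescence was read.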

CDK6 = target: T2, CDK6 (Homo sapiens, UniProt Q00534); assay: as above; assay type: biochemical; conditions: read-out: CDK6/D1 IC50
T2 construct: purchased Invitrogen PR8422B
T2 sequence (Q00534 whole entry): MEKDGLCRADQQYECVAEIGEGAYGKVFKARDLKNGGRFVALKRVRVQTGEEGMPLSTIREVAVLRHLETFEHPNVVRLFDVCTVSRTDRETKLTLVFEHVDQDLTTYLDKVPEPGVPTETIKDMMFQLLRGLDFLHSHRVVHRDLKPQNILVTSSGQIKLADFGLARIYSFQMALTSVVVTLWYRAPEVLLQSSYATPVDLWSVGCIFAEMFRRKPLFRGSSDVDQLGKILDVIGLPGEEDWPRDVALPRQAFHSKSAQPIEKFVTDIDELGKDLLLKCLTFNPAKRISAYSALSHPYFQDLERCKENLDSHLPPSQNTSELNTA
T2 sequence (P24385 whole entry partner): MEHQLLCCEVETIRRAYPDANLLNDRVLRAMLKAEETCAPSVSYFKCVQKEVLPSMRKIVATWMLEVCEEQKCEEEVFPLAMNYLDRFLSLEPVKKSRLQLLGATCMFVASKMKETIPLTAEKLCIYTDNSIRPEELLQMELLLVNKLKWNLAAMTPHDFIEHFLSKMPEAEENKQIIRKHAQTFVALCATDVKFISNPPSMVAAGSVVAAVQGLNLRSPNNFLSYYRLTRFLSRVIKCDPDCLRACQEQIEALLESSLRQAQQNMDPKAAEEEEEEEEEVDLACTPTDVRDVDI
Method in brief: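 Recombinant CDK6 (5 nM) with retinoblastoma substrate (1 μM) and 25 μM ATP, compound at final 0.1–200 nM, incubated 2 h at room temperature. ADP formed detected by ADP-Glo luminescence. IC50 from four-parameter logistic fit of percent inhibition.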

FMS kinase = target: T3, FMS kinase (Homo sapiens, UniProt P07333); assay: LanthaScreen Eu Kinase Binding Assay (ATP, fluorescent-PolyGT substrate); assay type: biochemical
T3 construct: purchased Invitrogen (Life Technologies)
T3 sequence (P07333 20-972): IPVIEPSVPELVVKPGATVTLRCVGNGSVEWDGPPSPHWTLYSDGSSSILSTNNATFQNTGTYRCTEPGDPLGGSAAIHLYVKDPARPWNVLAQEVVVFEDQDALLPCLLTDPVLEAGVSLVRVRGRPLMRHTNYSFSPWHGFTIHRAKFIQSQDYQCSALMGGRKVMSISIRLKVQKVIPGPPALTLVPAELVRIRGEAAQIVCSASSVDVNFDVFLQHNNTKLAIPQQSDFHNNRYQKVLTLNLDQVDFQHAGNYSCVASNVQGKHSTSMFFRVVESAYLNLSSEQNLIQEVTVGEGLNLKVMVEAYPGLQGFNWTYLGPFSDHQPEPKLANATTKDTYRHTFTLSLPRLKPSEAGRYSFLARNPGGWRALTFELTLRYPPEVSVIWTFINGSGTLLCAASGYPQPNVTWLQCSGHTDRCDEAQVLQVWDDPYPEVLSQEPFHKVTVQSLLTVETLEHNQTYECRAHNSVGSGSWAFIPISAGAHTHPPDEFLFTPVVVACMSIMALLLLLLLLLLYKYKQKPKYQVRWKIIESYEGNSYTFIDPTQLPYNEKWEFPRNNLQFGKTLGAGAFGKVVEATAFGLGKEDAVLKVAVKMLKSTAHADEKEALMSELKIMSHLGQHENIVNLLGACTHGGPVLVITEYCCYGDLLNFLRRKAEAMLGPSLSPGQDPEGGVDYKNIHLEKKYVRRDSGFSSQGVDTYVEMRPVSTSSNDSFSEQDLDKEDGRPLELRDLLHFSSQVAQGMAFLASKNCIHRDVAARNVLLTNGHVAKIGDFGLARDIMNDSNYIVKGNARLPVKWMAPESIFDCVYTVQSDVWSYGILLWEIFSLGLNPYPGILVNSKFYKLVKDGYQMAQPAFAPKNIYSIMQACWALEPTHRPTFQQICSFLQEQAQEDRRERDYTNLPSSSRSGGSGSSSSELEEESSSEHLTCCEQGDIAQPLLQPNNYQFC
Method in brief: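 Kinase (1.25 nM) preincubated 10 min with 3-fold compound dilutions, then ATP 10 μM and fluorescent PolyGT substrate 200 nM added for 1 h in the dark at room temperature. Stopped with Tb-antibody (4 nM) and EDTA 20 mM; TR-FRET at 340 nm excitation, 495/520 nm emission; IC50 from four-parameter fit.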

[1] = tested on: DU4475 breast carcinoma cells; assay: Cancer cell proliferation assay, single agent (cell viability); assay type: cell-based; conditions: Homo sapiens, DU-4475; Table 4; Rb negative; treatment 144 Hr with medium change at 72 Hr; Cell Titer-Glo or resazurin
Method in brief: (§1)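 Cells seeded day 1, then exposed on day 2 to 7–9 compound concentrations (e.g. 1.1 nM–10 μM); BT-549 for 24 h, MCF-7 and DU4475 for 144 h with medium change at 72 h. Viability by CellTiter-Glo or resazurin; IC50 from variable-slope sigmoidal fit.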

[2] = tested on: MCF-7 breast adenocarcinoma cells; assay: as above; assay type: cell-based; conditions: Homo sapiens
Method in brief: as §1

[3] = tested on: MCF-7-PR (palbociclib-resistant MCF-7) cells; assay: Cell viability in palbociclib-resistant cell line; assay type: cell-based; conditions: Homo sapiens, MCF7; Table 5; palbociclib-resistant cell line maintained at about 850 nM palbociclib
Method: Cells were treated with test compounds at 7 to 9 concentrations within a desired concentration range (e.g. 1.1 nM-10 μM) on day 2 by series diluting the test compound stock solution (10 mM in DMSO) with culture medium. Treatment duration was 24 Hr for BT-549 cells and 144 Hr (with a medium change at 72 Hr) for MCF-7 and DU4475 cells. Cell viability was assessed by Cell Titer-Glo® as recommended by Promega (Cat. No.: G7572), or by resazurin assay (Sigma Aldrich, Cat. No.: R7017) post treatment.
Cell viability data were plotted using GraphPad Prism (GraphPad Software, Inc., San Diego, Calif.). In addition, a nonlinear regression model with a sigmoidal dose response and variable slope within GraphPad Prism was used to calculate the IC50 value of individual test compounds.
The effects of test compounds in a palbociclib-resistant cell line and a parental, non-resistant cell line were compared. The palbociclib-resistant cell line (“MCF-7-PR”) was derived from the parental, non-resistant cell line (MCF-7 breast adenocarcinoma cells) by culture of cells over a period of three months in increasing concentrations of palbociclib, starting from about 350 nM and ending at about 850 nM, the final concentration at which they were then maintained in culture. The MCF-7-PR cells were checked using a cell viability assay to confirm that they had at least 5-fold resistance to palbociclib compared to parental MCF-7 cells, as measured by an increase in the cell viability IC50 values. Assessment of cell viability following treatment with palbociclib or test compounds was performed according to the method described above for MCF-7 cells.

[4] = tested on: Rb Ser780 phosphorylation in MCF-7 cells; assay: Determination of pRb levels (Ser780 phosphorylation, ELISA); assay type: cell-based; conditions: Homo sapiens, MCF7, 24H treatment, read-out: Inhibition of Rb phosphorylation IC50
Method: Hypo-phosphorylation of the retinoblastoma protein (Rb) by cyclin D:Cdk4/6 complexes results in active Rb, which is a clinically relevant biomarker associated with CDK4 or CDK6 inhibition. As a confirmatory measure of functional activity of CDK4/6, the Ser780 phosphorylation state of Rb was assessed. MCF-7 cells were plated at 2.5×10^5 to 3.0×10^6 cells/well in 6-well cell-culture plates and incubated at 37° C. for 24H in MEM medium supplemented with 10% FBS. Cells were treated for 24H with a medium containing test compound at various concentrations (e.g., 0.01, 0.1, […]) or with DMSO (≤1%) in duplicate. After incubation period, the media was removed, and cells were rinsed once with ice-cold PBS and lysed with 0.2 mL of Cell Lysis Buffer containing 1 mM PMSF and Protease Inhibitor. Protein concentration was estimated following Bradford method. The lysis and the Rb measurements were performed following the manufacturer's ELISA kit protocols and buffers (Cell Signaling Technology, Cat. No.: 13016C). Rb inhibition of test compounds was calculated as percentage of vehicle control. In some cases, a nonlinear regression model with a sigmoidal dose response and variable slope within GraphPad Prism was used to calculate the IC50 value of Rb inhibition for individual test compounds.

CDK1 (cyclin B) = target: T4, CDK1 (cyclin B) (Homo sapiens, UniProt P06493); assay: Z'-LYTE kinase assay; assay type: biochemical; conditions: read-out: CDK1/B IC50
T4 construct: purchased Invitrogen Life Technologies (assay service)
T4 sequence (P06493 whole entry): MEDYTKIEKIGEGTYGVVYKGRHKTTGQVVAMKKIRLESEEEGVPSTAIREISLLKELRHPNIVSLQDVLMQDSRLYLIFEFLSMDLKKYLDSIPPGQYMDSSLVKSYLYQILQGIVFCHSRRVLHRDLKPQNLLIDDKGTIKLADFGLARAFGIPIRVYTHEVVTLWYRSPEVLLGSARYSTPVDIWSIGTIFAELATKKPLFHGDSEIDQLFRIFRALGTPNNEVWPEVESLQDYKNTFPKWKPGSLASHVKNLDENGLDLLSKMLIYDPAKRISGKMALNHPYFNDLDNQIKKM
T4 sequence (P14635 whole entry partner): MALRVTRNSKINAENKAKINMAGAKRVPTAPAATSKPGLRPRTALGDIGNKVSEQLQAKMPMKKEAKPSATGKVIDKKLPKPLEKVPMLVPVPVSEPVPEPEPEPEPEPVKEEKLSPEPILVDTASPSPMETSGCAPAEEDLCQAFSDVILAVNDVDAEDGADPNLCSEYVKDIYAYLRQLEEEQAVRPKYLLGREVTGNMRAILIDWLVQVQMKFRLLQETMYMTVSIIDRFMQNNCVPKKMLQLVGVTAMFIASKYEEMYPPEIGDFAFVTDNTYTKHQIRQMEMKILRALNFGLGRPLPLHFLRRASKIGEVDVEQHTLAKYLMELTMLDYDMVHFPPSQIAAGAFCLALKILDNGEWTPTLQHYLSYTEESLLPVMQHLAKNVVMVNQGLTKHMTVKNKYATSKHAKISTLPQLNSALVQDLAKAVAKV
Method: The plates were shaken for 30 seconds, and incubated for 60 minutes at room temperature. […] The plates were read on fluorescence plate reader with Dual emission at 445 nm and 520 nm.
The following equations were used for Z′-LYTE™ Screening Assay Data Analysis.

CDK2 (cyclin A) = target: T5, CDK2 (cyclin A) (Homo sapiens, UniProt P24941); assay: Z'-LYTE kinase assay; assay type: biochemical
T5 construct: purchased Invitrogen Life Technologies (assay service)
Method in brief: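 FRET-based Z′-LYTE read-out using 1.22–10.3 ng CDK2/cyclin A with Ser/Thr 12 peptide (2 μM in the 2× mix) and ATP (31 μM as the 4× solution), in HEPES pH 7.5, MgCl2, EGTA and BRIJ-35, for 60 min at room temperature. After 1 h of development, the 445/520 nm emission was read, and percent inhibition was fitted to a four-parameter logistic curve for IC50.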

CDK9 (cyclin K) = target: T6, CDK9 (cyclin K) (Homo sapiens, UniProt P50750); assay: LanthaScreen Eu Kinase Binding Assay
T6 construct: purchased Invitrogen Life Technologies (assay service)
T6 sequence (P50750 whole entry): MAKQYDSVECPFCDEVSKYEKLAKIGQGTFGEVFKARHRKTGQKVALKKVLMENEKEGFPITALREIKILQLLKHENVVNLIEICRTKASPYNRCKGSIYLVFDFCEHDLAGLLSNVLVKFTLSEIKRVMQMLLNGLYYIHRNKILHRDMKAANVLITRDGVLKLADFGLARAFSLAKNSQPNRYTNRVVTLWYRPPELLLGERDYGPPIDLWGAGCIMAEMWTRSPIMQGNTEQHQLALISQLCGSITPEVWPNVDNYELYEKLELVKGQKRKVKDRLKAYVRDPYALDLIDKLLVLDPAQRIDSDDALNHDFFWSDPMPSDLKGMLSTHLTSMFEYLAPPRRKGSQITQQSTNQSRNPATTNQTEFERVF
T6 sequence (O75909 whole entry partner): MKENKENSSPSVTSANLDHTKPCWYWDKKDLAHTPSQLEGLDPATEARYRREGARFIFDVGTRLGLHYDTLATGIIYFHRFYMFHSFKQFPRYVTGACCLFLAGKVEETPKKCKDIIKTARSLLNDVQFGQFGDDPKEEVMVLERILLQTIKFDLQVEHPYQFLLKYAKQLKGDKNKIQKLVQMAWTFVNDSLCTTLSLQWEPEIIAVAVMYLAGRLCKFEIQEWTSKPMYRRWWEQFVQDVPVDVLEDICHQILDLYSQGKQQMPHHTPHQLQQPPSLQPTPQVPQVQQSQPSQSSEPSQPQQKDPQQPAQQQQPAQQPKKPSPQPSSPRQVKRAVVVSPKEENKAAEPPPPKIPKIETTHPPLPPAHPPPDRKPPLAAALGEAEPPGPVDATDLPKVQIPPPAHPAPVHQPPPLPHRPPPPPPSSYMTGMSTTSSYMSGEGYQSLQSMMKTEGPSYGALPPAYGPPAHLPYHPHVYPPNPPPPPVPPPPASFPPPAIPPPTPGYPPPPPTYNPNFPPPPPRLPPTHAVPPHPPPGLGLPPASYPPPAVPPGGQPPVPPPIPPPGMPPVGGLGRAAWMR
Method: 0.16 μL of 100×test compound in 100% DMSO (at specific solutions) were mixed with 3.84 μL of Kinase Buffer (50 mM HEPES pH 7.5, 0.01% BRIJ-35, 10 mM MgCl2, 1 mM EGTA), 8.0 μL of 2× Kinase (5 nM)/Antibody (Eu-anti-His, 2 nM) Mixture and 4.0 μL of 4×Tracer (Tracer 236, 100 nM). The plates were shaken for 30 seconds, and incubated for 60 minutes at room temperature. The plates were read on fluorescence plate reader with Dual emission at 615 nm and 665 nm.
The following equations were used for LanthaScreen Eu Kinase Binding Assay Data Analysis. Percent inhibition (100-% activity) was fitted to the “four-parameter logistic model” in XLfit for determination of IC50 values.

[5] = MCF7, Table 4, Rb positive, treatment 144 Hr with medium change at 72 Hr, Cell Titer-Glo or resazurin

T1 sequence (P11802 whole entry): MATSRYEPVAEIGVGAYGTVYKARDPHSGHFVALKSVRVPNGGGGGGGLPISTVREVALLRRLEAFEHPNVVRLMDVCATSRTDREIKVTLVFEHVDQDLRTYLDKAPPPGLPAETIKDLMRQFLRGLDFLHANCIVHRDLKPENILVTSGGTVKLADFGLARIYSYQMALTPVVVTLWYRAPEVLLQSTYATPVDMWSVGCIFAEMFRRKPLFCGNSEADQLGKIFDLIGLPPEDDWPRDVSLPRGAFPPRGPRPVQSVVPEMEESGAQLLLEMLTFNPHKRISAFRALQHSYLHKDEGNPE
T1 sequence (P24385 whole entry partner): as the sequence (P24385 whole entry partner) above

Row | Compound | IC50 (CDK4) | IC50 (CDK6) | IC50 (FMS kinase) | IC50 [1] | IC50 [2, 5] | IC50 ([2]; MCF7, Table 5, parental, non-resistant cell line compared with MCF-7-PR) | IC50 [3] | IC50 [4] | IC50 (CDK1 (cyclin B)) | IC50 (CDK2 (cyclin A)) | IC50 (CDK9 (cyclin K))
1 | N#Cc1cc2cnc(Nc3cnn(C4CCNCC4)c3)nc2n(C2CCCC2)c1=O [Compound No. 50, 8-cyclopentyl-7-oxo-2-((1-(piperidin-4-yl)-1H-pyrazol-4-yl)amino)-7,8-dihydropyrido [2,3-d] pyrimidine-6-carbonitrile] | 23 nM | 17 nM | 1 nM | 2440 nM | 395 nM | 664 nM | 1040 nM | 505 nM |  |  | 
2 | N#Cc1cc2cnc(Nc3ccc4c(c3)CCN(CCN)C4)nc2n(C2CCCC2)c1=O [Compound No. 66, 2-((2-(2-aminoethyl)-1,2,3,4-tetrahydroisoquinolin-6-yl)amino)-8-cyclopentyl-7-oxo-7,8-dihydropyrido[2,3-d]pyrimidine-6-carbonitrile] | 7 nM | 6 nM |  | 975 nM | 568 nM |  |  |  | 1720 nM | 426 nM | 83 nM
